From PubChem BioAssay AID330 (DTP/NCI, 2004)
Several values for one entry are separate records, joined by “and”; a condition that tells them apart may be missing. Equal values may be shown once. Toxic doses and inconclusive results are not listed. Rule for the calls: active = survival T/C of 150% or more; inactive = T/C below 125% in these data.

System: P388 leukemia ip, CD2F1 mice, survival T/C
Assay: NCI In Vivo Anticancer Drug Screen. Data for tumor model P388 Leukemia (intraperitoneal) in CD2F1 (CDF1) mice
Conditions: endpoint: median survival time, higher = longer survival
Procedure, shortened: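 Mice carrying the transplanted tumor received test compound or vehicle. Survival was recorded in each group, and the value is the treated-group measurement divided by that of the vehicle-treated control group.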

[1] = dose: 60.0 mg/kg/injection, schedule: Q01DX005 (ip), vehicle: saline with Tween-80
[2] = dose: 120.0 mg/kg/injection, schedule: Q01DX005 (ip), vehicle: saline with Tween-80
[3] = dose: 50.0 mg/kg/injection, schedule: Q01DX005 (ip), vehicle: Klucel (hydroxypropylcellulose) (HPC)
[4] = dose: 100.0 mg/kg/injection, schedule: Q01DX005 (ip), vehicle: Klucel (hydroxypropylcellulose) (HPC)
[5] = dose: 200.0 mg/kg/injection, schedule: Q01DX005 (ip), vehicle: Klucel (hydroxypropylcellulose) (HPC)
[6] = dose: 100.0 mg/kg/injection, schedule: Q01DX009 (ip), vehicle: saline with Tween-80
[7] = dose: 200.0 mg/kg/injection, schedule: Q01DX009 (ip), vehicle: saline with Tween-80
[8] = dose: 50.0 mg/kg/injection, schedule: Q01DX009 (ip), vehicle: saline with Tween-80
[9] = dose: 100.0 mg/kg/injection, schedule: Q04DX003 (ip), vehicle: saline with Tween-80
[10] = dose: 50.0 mg/kg/injection, schedule: Q01DX005 (ip), vehicle: saline with Tween-80
[11] = dose: 100.0 mg/kg/injection, schedule: Q01DX005 (ip), vehicle: saline with Tween-80
[12] = dose: 200.0 mg/kg/injection, schedule: Q01DX005 (ip), vehicle: saline with Tween-80
[13] = dose: 240.0 mg/kg/injection, schedule: Q01DX005 (ip), vehicle: saline with Tween-80
[14] = dose: 25.0 mg/kg/injection, schedule: Q01DX009 (ip), vehicle: saline with Tween-80

Measured: T/C

O=C(NC1=NN(Cc2ccccc2)C(=O)C1)c1ccc(S(=O)(=O)F)cc1
inactive: [1] 113 % of control | [2] 121 % of control

O=c1c2ccccc2c2ccccc2c(=O)n1-c1cc2c3ccccc3ccc2c2ccccc12
inactive: dose: 60.0 mg/kg/injection, schedule: Q01DX005 (ip), vehicle: Klucel (hydroxypropylcellulose) (HPC) 100 % of control | dose: 120.0 mg/kg/injection, schedule: Q01DX005 (ip), vehicle: Klucel (hydroxypropylcellulose) (HPC) 99 % of control | dose: 240.0 mg/kg/injection, schedule: Q01DX005 (ip), vehicle: Klucel (hydroxypropylcellulose) (HPC) 95 % of control

OCCNC(Cc1ccccc1)c1c(O)ccc2ccccc12 (configuration not stated)
inactive: [3] 100 % of control | [4] 94 % of control | [5] 100 % of control

O=C(CBr)Nc1c(Cl)cc(Br)cc1Br
inactive: dose: 6.25 mg/kg/injection, schedule: Q01DX009 (ip), vehicle: saline 113 % of control | dose: 12.5 mg/kg/injection, schedule: Q01DX009 (ip), vehicle: saline 95 % of control | dose: 25.0 mg/kg/injection, schedule: Q01DX009 (ip), vehicle: saline 98 % of control | [6] 104 % of control | [7] 113 % of control

NC(CC(=O)O)c1ccccc1 (configuration not stated)
inactive: [8] 107 % of control | [6] 102 % of control | [7] 102 % of control | dose: 400.0 mg/kg/injection, schedule: Q01DX009 (ip), vehicle: saline with Tween-80 90 % of control

Cc1ccc2c(c1)CN(C13CC4CC(CC(C4)C1)C3)CO2
inactive: dose: 66.0 mg/kg/injection, schedule: Q04DX003 (ip), vehicle: saline with Tween-80 95 % of control | [9] 100 % of control | dose: 150.0 mg/kg/injection, schedule: Q04DX003 (ip), vehicle: saline with Tween-80 100 % of control | dose: 200.0 mg/kg/injection, schedule: Q04DX003 (ip), vehicle: saline with Tween-80 105 % of control | dose: 400.0 mg/kg/injection, schedule: Q04DX003 (ip), vehicle: saline with Tween-80 115 % of control

CCCCCCCCCCCN1CCS(=O)(=O)CC1
inactive: dose: 50.0 mg/kg/injection, schedule: Q01DX009 (ip), vehicle: Klucel (hydroxypropylcellulose) (HPC) 100 % of control | dose: 100.0 mg/kg/injection, schedule: Q01DX009 (ip), vehicle: Klucel (hydroxypropylcellulose) (HPC) 98 % of control | dose: 200.0 mg/kg/injection, schedule: Q01DX009 (ip), vehicle: Klucel (hydroxypropylcellulose) (HPC) 94 % of control

C=C(C)C(Br)=C(C)C
inactive: dose: 12.5 mg/kg/injection, schedule: Q01DX001 (ip), vehicle: saline with Tween-80 108 % of control | dose: 25.0 mg/kg/injection, schedule: Q01DX001 (ip), vehicle: saline with Tween-80 107 % of control | dose: 50.0 mg/kg/injection, schedule: Q01DX001 (ip), vehicle: saline with Tween-80 99 % of control

COC(/C=N/O)c1ccccc1 (configuration not stated)
inactive: dose: 25.0 mg/kg/injection, schedule: Q04DX003 (ip), vehicle: saline with Tween-80 100 % of control | dose: 25.0 mg/kg/injection, schedule: Q04DX003 (ip), vehicle: saline 109 % of control | dose: 50.0 mg/kg/injection, schedule: Q04DX003 (ip), vehicle: saline with Tween-80 100 % of control and 94 % of control | dose: 50.0 mg/kg/injection, schedule: Q04DX003 (ip), vehicle: saline 101 % of control | [9] 106 % of control and 87 % of control | dose: 100.0 mg/kg/injection, schedule: Q04DX003 (ip), vehicle: saline 101 % of control | dose: 200.0 mg/kg/injection, schedule: Q04DX003 (ip), vehicle: saline 105 % of control

OC(CCl)Cn1nc2ccc3ccccc3c2n1 (configuration not stated)
inactive: [3] 102 % of control | [4] 100 % of control | dose: 100.0 mg/kg/injection, schedule: Q04DX003 (ip), vehicle: Klucel (hydroxypropylcellulose) (HPC) 103 % of control | [5] 101 % of control | dose: 200.0 mg/kg/injection, schedule: Q04DX003 (ip), vehicle: Klucel (hydroxypropylcellulose) (HPC) 102 % of control | dose: 400.0 mg/kg/injection, schedule: Q04DX003 (ip), vehicle: Klucel (hydroxypropylcellulose) (HPC) 96 % of control

O=C(Nc1ccc(N=Nc2ccc(S(=O)(=O)O)cc2)cc1)c1ccc(N=Nc2c(S(=O)(=O)O)cc(O)c3c(NC(=O)c4ccccc4)cc(S(=O)(=O)O)cc23)cc1
inactive: [10] 95 % of control | [11] 93 % of control | [12] 95 % of control

OC1c2ccccc2-c2cccc(N=Cc3ccc4c(c3)OCO4)c21 (configuration not stated)
inactive: [1] 108 % of control | [2] 97 % of control | [13] 95 % of control

CCOC(=O)C[N+]12CCC34c5cc(OC)c(OC)cc5N5C(=O)CC6OCC=C(C1)C(CC32)C6C54 (configuration not stated)
inactive: dose: 1.56 mg/kg/injection, schedule: Q01DX009 (ip), vehicle: saline with Tween-80 100 % of control and 108 % of control | dose: 3.12 mg/kg/injection, schedule: Q01DX009 (ip), vehicle: saline with Tween-80 100 % of control and 108 % of control | [14] 105 % of control (2×) and 94 % of control | [8] 105 % of control and 111 % of control and 95 % of control | [6] 105 % of control and 111 % of control and 98 % of control

C/C(=N\O)c1cc(Br)cc([N+](=O)[O-])c1O
inactive: [3] 100 % of control | [4] 94 % of control

COc1cc2c(cc1OC)C(=O)Nc1nc(N)nc(N)c1C2
inactive: dose: 100.0 mg/kg/injection, schedule: Q01DX001 (ip), vehicle: saline with Tween-80 108 % of control | dose: 200.0 mg/kg/injection, schedule: Q01DX001 (ip), vehicle: saline with Tween-80 119 % of control

COc1cc2c(cc1O)Cc1c-2[n+](C)cc2cc(OC)c(OC)cc12
inactive: dose: 6.25 mg/kg/injection, schedule: Q01DX005 (ip), vehicle: Klucel (hydroxypropylcellulose) (HPC) 117 % of control | dose: 12.5 mg/kg/injection, schedule: Q01DX005 (ip), vehicle: Klucel (hydroxypropylcellulose) (HPC) 109 % of control | dose: 25.0 mg/kg/injection, schedule: Q01DX005 (ip), vehicle: Klucel (hydroxypropylcellulose) (HPC) 115 % of control | dose: 100.0 mg/kg/injection, schedule: Q04DX002 (ip), vehicle: Klucel (hydroxypropylcellulose) (HPC) 119 % of control

c1ccc2c(c1)Nc1ccc3ccccc3c1S2
inactive: [14] 98 % of control | [8] 105 % of control | [6] 96 % of control | [7] 108 % of control

C=Cn1c([N+](=O)[O-])cnc1/C=C/c1ccc(C(=O)OCCN2CCCC2)cc1
inactive: dose: 12.5 mg/kg/injection, schedule: Q01DX001 (ip), vehicle: DMSO 105 % of control | dose: 25.0 mg/kg/injection, schedule: Q01DX001 (ip), vehicle: DMSO 98 % of control | dose: 50.0 mg/kg/injection, schedule: Q01DX001 (ip), vehicle: DMSO 104 % of control | dose: 100.0 mg/kg/injection, schedule: Q01DX001 (ip), vehicle: DMSO 100 % of control

COc1ccc2nc3cc(Cl)ccc3c(Nc3ccc(S(=O)(=O)Nc4nccs4)cc3)c2c1
inactive: [10] 94 % of control | [11] 105 % of control | [12] 97 % of control

Cn1c(/C=N/NC2=NCCCN2)cnc1[N+](=O)[O-]
inactive: dose: 100.0 mg/kg/injection, schedule: Q04DX002 (ip), vehicle: saline with Tween-80 97 % of control | dose: 200.0 mg/kg/injection, schedule: Q04DX002 (ip), vehicle: saline with Tween-80 104 % of control | dose: 400.0 mg/kg/injection, schedule: Q04DX002 (ip), vehicle: saline with Tween-80 107 % of control

CCCCC(CN(C)C)C(=O)/C=C/c1ccccc1 (configuration not stated)
inactive: dose: 60.0 mg/kg/injection, schedule: Q01DX005 (ip), vehicle: saline 109 % of control | dose: 120.0 mg/kg/injection, schedule: Q01DX005 (ip), vehicle: saline 123 % of control

O=C(O)CC1(C(=O)O)CCC(OCc2ccccc2)CC1 (configuration not stated)
inactive: dose: 50.0 mg/kg/injection, schedule: Q01DX009 (ip), vehicle: saline 102 % of control | dose: 100.0 mg/kg/injection, schedule: Q01DX009 (ip), vehicle: saline 92 % of control

C=C(C)CCCCOCOCCOC
inactive: [1] 99 % of control | [2] 99 % of control | [13] 97 % of control

O=C1NNC(=O)c2ccccc2C(=O)S1
inactive: [1] 102 % of control | [2] 101 % of control | [13] 97 % of control

CCN(CC)CCCOC(=O)N(Cc1ccc(Cl)cc1)C1CC1
inactive: dose: 25.0 mg/kg/injection, schedule: Q01DX009 (ip), vehicle: saline + Tween-80 + alcohol 108 % of control | dose: 50.0 mg/kg/injection, schedule: Q01DX009 (ip), vehicle: saline + Tween-80 + alcohol 108 % of control | dose: 100.0 mg/kg/injection, schedule: Q01DX009 (ip), vehicle: saline + Tween-80 + alcohol 110 % of control
